Data set [1] has as its system recombinant NL4-3 virus (nef section replaced with Renilla luciferase gene) in MT-2 cells. Description: whole plant or invertebrate. It counts as cell-based, HIV. The conditions noted are these: NL43, luciferase activity in MT-2 cells infected 4-5 days with recombinant NL4-3 virus. The source says:
A recombinant NL4-3 proviral clone, in which a section of the nef gene was replaced with the Renilla luciferase gene, was used to make the reference virus used in these studies.
Supernatent was harvested after 2-3 days and the amount of virus present was titered in MT-2 cells using luciferase enzyme activity as a marker by measuring luciferase enzyme activity. Luciferase was quantitated using the EnduRen Live Cell Substrate from Promega (Madison, Wis.). Antiviral activities of compounds toward the recombinant virus were quantified by measuring luciferase activity in MT-2 cells infected for 4-5 days with the recombinant virus in the presence of serial dilutions of the compound.

Data set [2] in a line: Compound cytotoxicity (CC50), XTT-based colorimetric assay. The conditions noted are these: human; uninfected MT2 cells, day 4, XTT assay. In kind it is cell-based. As to the method: Compound cytotoxicity and the corresponding CC50 values were determined using the same protocol as described in the antiviral assay except that uninfected cells were used. Cytotoxicity was assessed on day 4 in uninfected MT2 cells by using a XTT (2,3-bis[2-Methoxy-4-nitro-5-sulfophenyl]-2H-tetrazolium-5-carboxyanilide inner salt)-based colorimetric assay (Sigma-Aldrich, St Louis, Mo.).
(In general: Formazan colour is commonly taken as a measure of viable cells.)

Structures are written as SMILES. Where a name gives a salt, the structure may show the parent alone. Read-outs that look alike come from different tables or passages of the source.

Broadly, the CC50 is the concentration at which the toxic effect on the cells reaches its halfway point. A high value points to lower toxicity to the cells. Take `CCOc1ccc(-c2cccnc2C(Cc2ccccc2)NC(=O)NS(=O)(=O)c2ccccc2C)cc1` (centres unmarked) [Example 93, N-((1-(3-(4-ethoxyphenyl)pyridin-2-yl)-2-phenylethyl)carbamoyl)-2-methylbenzenesulfonamide]: the values for the EC50 in data set [1] (read-out: Activity) and in data set [1] (read-out: EC50) were 0.1 to 1 µM and 0.42 µM, respectively. Further, the CC50 at 4 day in data set [2] is more than 100 µM.

With `Cc1ccccc1S(=O)(=O)NC(=O)N[C@@H](Cc1ccccc1)c1nccn1-c1cccc(Br)c1` [Example 20, (S)-N-((1-(1-(3-bromophenyl)-1H-imidazol-2-yl)-2-phenylethyl)carbamoyl)-2-methylbenzenesulfonamide], the EC50 in data set [1] (read-out: Activity) is less than 0.1 µM. The compound further yielded a CC50 at 4 day in data set [2] of more than 33 µM.

In the case of `O=C(N[C@H](Cc1cc(F)cc(F)c1)c1ncccc1-c1cncc(F)c1)NS(=O)(=O)c1ccccc1Cl` [Example 110, (R)-2-chloro-N-((2-(3,5-difluorophenyl)-1-(5′-fluoro-[3,3′-bipyridin]-2-yl)ethyl)carbamoyl)benzenesulfonamide, TFA], in data set [1] (read-out: Activity), the EC50 was more than 1 µM. In addition, the half-maximal cytotoxic concentration (CC50) at 4 day in data set [2] was more than 33 µM.

Take `Cc1ccccc1S(=O)(=O)NC(=O)N[C@@H](Cc1ccccc1)c1nccn1-c1ccc(F)cc1` [Example 5, (S)-N-((1-(1-(4-fluorophenyl)-1H-imidazol-2-yl)-2-phenylethyl)carbamoyl)-2-methylbenzenesulfonamide]: the EC50 in data set [1] (read-out: Activity) lay in the range of 0.1 to 1 µM. Further, in data set [2], the CC50 at 4 day was more than 100 µM.

Consider `COc1ccc(Cn2ccnc2[C@H](Cc2ccccc2)NC(=O)NS(=O)(=O)c2ccccc2Cl)cc1` [Example 41, (S)-2-chloro-N-((1-(1-(4-methoxybenzyl)-1H-imidazol-2-yl)-2-phenylethyl)carbamoyl)benzenesulfonamide], for which, in data set [1] (read-out: Activity), the EC50 was in the range of 0.1 to 1 µM. Besides, the CC50 at 4 day in data set [2] is more than 33 µM.

As for `Cc1ccccc1S(=O)(=O)NC(=O)N[C@@H](Cc1ccccc1)c1nccn1-c1ccc2sccc2c1` [Example 74, (S)-N-((1-(1-(benzo[b]thiophen-5-yl)-1H-imidazol-2-yl)-2-phenylethyl)carbamoyl)-2-methylbenzenesulfonamide], the EC50 in data set [1] (read-out: Activity) was less than 0.1 µM. This compound also gave a CC50 at 4 day in data set [2] of 39 µM.

`O=C(N[C@H](Cc1cc(F)cc(F)c1)c1ncccc1-c1c[nH]c2ccccc12)NS(=O)(=O)c1ccccc1Cl` [Example 102, (R)-N-((1-(3-(1H-indol-3-yl)pyridin-2-yl)-2-(3,5-difluorophenyl)ethyl)carbamoyl)-2-chlorobenzenesulfonamide, 2 TFA]: the EC50 in data set [1] (read-out: Activity) was more than 1 µM; in data set [1] (read-out: EC50) it was 11.5 µM. This compound registered a CC50 at 4 day in data set [2] of more than 33 µM.

For `Cc1cccc(-n2ccnc2[C@H](Cc2ccccc2)NC(=O)NS(=O)(=O)c2ccccc2C)c1` [Example 23, (S)-2-methyl-N-((2-phenyl-1-(1-(m-tolyl)-1H-imidazol-2-yl)ethyl)carbamoyl)benzenesulfonamide], in data set [1] (read-out: Activity), the EC50 is less than 0.1 µM. The CC50 at 4 day in data set [2] is more than 100 µM.

With `Cc1ccccc1S(=O)(=O)NC(=O)N[C@@H](Cc1cc(F)cc(F)c1)c1ncccc1-c1coc2ccccc12` [Example 127, (S)-N-((1-(3-(benzofuran-3-yl)pyridin-2-yl)-2-(3,5-difluorophenyl)ethyl)carbamoyl)-2-methylbenzenesulfonamide, TFA], the EC50 in data set [1] (read-out: Activity) is more than 1 µM. Further, the midpoint of cytotoxicity in data set [2], the CC50 at 4 day, lay at 72 µM.

Regarding `Cc1ccccc1S(=O)(=O)NC(=O)N[C@@H](Cc1ccccc1)c1nccn1-c1ccc2ccccc2c1` [Example 69, (S)-2-methyl-N-((1-(1-(naphthalen-2-yl)-1H-imidazol-2-yl)-2-phenylethyl)carbamoyl)benzenesulfonamide], the EC50 was less than 0.1 µM in data set [1] (read-out: Activity) and 0.04 µM in data set [1] (read-out: EC50). This compound showed a CC50 at 4 day in data set [2] of more than 100 µM.

In the case of `COC(=O)Nc1ccc(-n2ccnc2[C@H](Cc2ccccc2)NC(=O)NS(=O)(=O)c2ccccc2Cl)cc1` [Example 36, (S)-methyl (4-(2-(1-(3-((2-chlorophenyl)sulfonyl)ureido)-2-phenylethyl)-1H-imidazol-1-yl)phenyl)carbamate], the figures for the EC50 in data set [1] (read-out: Activity) and in data set [1] (read-out: EC50) were less than 0.1 µM and 0.06 µM, respectively. The same compound showed a CC50 at 4 day in data set [2] of more than 100 µM.

Source of the values: patent publication US9855230B2 (ViiV Healthcare UK (No. 5) Limited, priority 2014, dated 2018).
